Reference: ChEMBL document CHEMBL3885861, “Open TG-GATES”

Organism: Rattus norvegicus
Assay: Open TG-GATES - Regimen: Daily Repeat
Type: toxicity, organism-based, Sprague-Dawley
Parameters: regimen Daily Repeat, gender Male, age 6 weeks
Conditions: in vivo, po, route gavage; for APTT / Bas / Eos / Fbg / Hb / Ht / Lym / MCH / MCHC / MCV / Mono / Neu / PT / Plat / RBC / Ret / WBC: tissue Blood; for KIDNEY_L / KIDNEY_R / KIDNEY_TOTAL: tissue Kidney; for LIVER: tissue Liver
[1] = 0 mg/kg, […], tissue Plasma, dose level Control, time 28 day
[2] = 100 mg/kg, 72 h, dose level Low, time 3 day
[3] = 100 mg/kg, 72 h, tissue Plasma, dose level Low, time 3 day
[4] = 100 mg/kg, […], dose level Low, time 7 day
[5] = 100 mg/kg, […], dose level Low, time 14 day
[6] = 100 mg/kg, […], dose level Low, time 28 day
[7] = 100 mg/kg, […], tissue Plasma, dose level Low, time 7 day
[8] = 100 mg/kg, […], tissue Plasma, dose level Low, time 14 day
[9] = 100 mg/kg, […], tissue Plasma, dose level Low, time 28 day

## O=C(O)c1ccccc1Nc1ccccc1 [FENAMIC ACID]
[1]
  RALB: 2.8 g/dL
  TBIL: 0.05 mg/dL
  TC: 64.8 mg/dL
  TG: 134.8 mg/dL
  TP: 6.2 g/dL
  gamma-GTP: 1 IU/L
[2]
  TERMINAL_BW: 236.5 g
  APTT: 15.6 s
  Bas: 0.6%
  Eos: 1%
  Fbg: 286.4 mg/dL
  Hb: 13.5 g/dL
  Ht: 40.5%
  Lym: 79.6%
  MCH: 20.9 pg
  MCHC: 33.4%
  MCV: 62.6 fL
  Mono: 2%
  Neu: 16.8%
  PT: 14.2 s
  Plat: 122.4 x10_4/uL
  RBC: 647.6 x10_4/ul
  Ret: 7.2%
  WBC: 82.6 x10_2/uL
  KIDNEY_L: 1 g
  KIDNEY_R: 1 g
  KIDNEY_TOTAL: 2 g
  LIVER: 11.2 g
[3]
  A/G: 0.9
  ALP: 1990.6 IU/L
  ALT: 37.6 IU/L
  AST: 64.2 IU/L
  BUN: 13.8 mg/dL
  CRE: 0.2 mg/dL
  Ca: 11.7 mg/dL
  Cl: 106.2 meq/L
  GLC: 184.4 mg/dL
  IP: 6.9 mg/dL
  K: 4.2 meq/L
  LDH: 82 IU/L
  Na: 143.6 meq/L
  PL: 144.2 mg/dL
  RALB: 2.7 g/dL
  TC: 75.6 mg/dL
  TG: 72.2 mg/dL
  TP: 5.6 g/dL
  gamma-GTP: 1.2 IU/L
[4]
  TERMINAL_BW: 277.8 g
  APTT: 16 s
  Bas: 0.6%
  Eos: 1%
  Fbg: 288.2 mg/dL
  Hb: 13.4 g/dL
  Ht: 39.6%
  Lym: 73%
  MCH: 20.9 pg
  MCHC: 33.9%
  MCV: 61.5 fL
  Mono: 2.6%
  Neu: 22.8%
  PT: 13.9 s
  Plat: 114.4 x10_4/uL
  RBC: 642.8 x10_4/ul
  Ret: 5.7%
  WBC: 82.6 x10_2/uL
  KIDNEY_L: 1.2 g
  KIDNEY_R: 1.2 g
  KIDNEY_TOTAL: 2.3 g
  LIVER: 13 g
[5]
  TERMINAL_BW: 337.7 g
  APTT: 16.8 s
  Bas: 0.8%
  Eos: 1%
  Fbg: 308.8 mg/dL
  Hb: 14.4 g/dL
  Ht: 41.6%
  Lym: 75.4%
  MCH: 20.8 pg
  MCHC: 34.5%
  MCV: 60.3 fL
  Mono: 2.4%
  Neu: 20.2%
  PT: 13.7 s
  Plat: 118.3 x10_4/uL
  RBC: 689.4 x10_4/ul
  Ret: 4.5%
  WBC: 82.2 x10_2/uL
  KIDNEY_L: 1.3 g
  KIDNEY_R: 1.2 g
  KIDNEY_TOTAL: 2.5 g
  LIVER: 14.7 g
[6]
  TERMINAL_BW: 419.6 g
  APTT: 17.2 s
  Bas: 0.2%
  Eos: 1%
  Fbg: 305.2 mg/dL
  Hb: 15.1 g/dL
  Ht: 43.9%
  Lym: 78.2%
  MCH: 19.4 pg
  MCHC: 34.5%
  MCV: 56.2 fL
  Mono: 2%
  Neu: 18%
  PT: 14.3 s
  Plat: 103.7 x10_4/uL
  RBC: 780.8 x10_4/ul
  Ret: 2.6%
  WBC: 94 x10_2/uL
  KIDNEY_L: 1.5 g
  KIDNEY_R: 1.5 g
  KIDNEY_TOTAL: 3 g
  LIVER: 16.7 g
[7]
  A/G: 0.9
  ALP: 1790.8 IU/L
  ALT: 37 IU/L
  AST: 63.4 IU/L
  BUN: 13.4 mg/dL
  CRE: 0.2 mg/dL
  Ca: 11.4 mg/dL
  Cl: 105.6 meq/L
  GLC: 182 mg/dL
  IP: 6.8 mg/dL
  K: 4.3 meq/L
  LDH: 94.6 IU/L
  Na: 142.8 meq/L
  PL: 160.6 mg/dL
  RALB: 2.7 g/dL
  TC: 80.2 mg/dL
  TG: 136.8 mg/dL
  TP: 5.8 g/dL
  gamma-GTP: 1 IU/L
[8]
  A/G: 0.9
  ALP: 1703.6 IU/L
  ALT: 35.6 IU/L
  AST: 63.6 IU/L
  BUN: 14.2 mg/dL
  CRE: 0.3 mg/dL
  Ca: 11.1 mg/dL
  Cl: 105.2 meq/L
  GLC: 179.4 mg/dL
  IP: 7 mg/dL
  K: 4.2 meq/L
  LDH: 95 IU/L
  Na: 143.4 meq/L
  PL: 158.4 mg/dL
  RALB: 2.7 g/dL
  TC: 80.8 mg/dL
  TG: 109.2 mg/dL
  TP: 5.8 g/dL
  gamma-GTP: 1 IU/L
[9]
  A/G: 0.8
  ALP: 1187.4 IU/L
  ALT: 33.4 IU/L
  AST: 59.2 IU/L
  BUN: 14.2 mg/dL
  CRE: 0.3 mg/dL
  Ca: 11 mg/dL
  Cl: 105.6 meq/L
  GLC: 179.6 mg/dL
  IP: 6.5 mg/dL
  K: 3.9 meq/L
  LDH: 87 IU/L
  Na: 144.6 meq/L
  PL: 154.2 mg/dL
  RALB: 2.8 g/dL
